Assay results published in patent US20120190580A1, “TREATMENT OF PATIENTS AFTER STENT IMPLANTATION OR BALLOON DILATATION AND DRUG ELUTING STENTS” (MAX-PLANCK-GESELLSCHAFT ZUR FORDERUNG DER WISSENSCHAFTEN …, priority 2009, published 2012).
Entries after “also recorded” stand apart in the source; their conditions may differ.

Columns and labels:
Format in all cases: in vivo, mouse
[1] = tested on: femoral arteries from KO mice; assay: Myograph: contractility of isolated femoral artery rings from mice chronically treated with captopril
Source text: (§1) A 129S7AB2.2 genomic BAC clone (bMQ-446B20; Sanger) was used to generate the targeting vector. Recombination in SW102 cell was employed to replace the miR-143 to miR-145 genomic region by a galK cassette (45) that was amplified by the primers flanking premiR-143 to pre-miR-145 ([…] GCggcgcgcctcagcactgtcctgctcctt; […] ACggcgcgcctgttgacaattaatcatcggca). The genomic sequence was inserted via gap repair into a pKO targeting vector containing a DTA expression cassette and 450 bp homology arms for BAC recombination resulting in a vector containing 6.5 kb of sequence 5′ of miR-143 and 5.5 kb 3′ of miR-145 from genomic sequence […] to […]. The AscI restriction sites flanking the galK cassette were used to replace the galK by a floxed IRESIacZ-NeoR cassette. The vector was electroporated into MPI II ES cells (46) and recombinant clones were identified. Recombinant ES cells were injected into blastocysts and transferred to pseudopregnant mice. Chimeric animals were backcrossed to C57BL/6 mice. Heterozygous animals were used to obtain WT and KO littermates. ES cells and mice were genotyped using an EcoRV restriction digest and a 5′ outside probe amplified from genomic DNA using oligonucleotides ([…]; […]). […] The experiments were performed in accordance with German legislation on protection of animals and were approved by the local governmental animal care committee (Regierungspraesidium Darmstadt).
Isolated segments of femoral and mesenteric arteries were examined in an isometric microvessel myograph as described previously (52). Mounted vessels were stimulated with 80 mM K+, 30 nM angiotensin II or increasing concentrations of phenylephrine (100 nM to 10 μM). The pCa-force relationships (13, 14) were obtained in permeabilized mouse femoral artery segments. In brief, arteries were permeabilized for 30 minutes using 0.5% Triton X-100 in relaxation solution. The latter consisted of (in mM): EGTA 1, Pipes 30, Na2ATP 5.16, MgCl2 7.31, sodium creatine phosphate 10 and potassium gluconate 74.1. For contraction curves the buffer was supplemented with 160 U/ml calmodulin and 100 U/ml creatine phosphokinase. The concentration of free Ca2+ ions was calculated as described previously (53).

[2] = tested on: miR-143/145-deficient mice; assay: Hemodynamic measurements by aortic catheterization under isoflurane, acute ACE inhibition; details: miR-143/145 KO animals compared with WT, isoflurane anaesthesia, captopril via jugular vein
Protocol: Aortic catheterization was performed using a 1.4 F pressure-volume catheter. Data were recorded and analyzed with Chart v5.4 as described before (51). Mice were anaesthetized with isoflurane (2 vol % in O2) and their body temperature was kept at 37° C. as monitored by a rectal probe. Captopril (30 mg/kg body weight, 50 μl) and angiotensin II (5 to 50000 ng/kg body weight, 50 μl) were applied via the left jugular vein. For measurements of conscious, unrestrained mice, hemodynamic parameters were recorded by telemetry (DSI, Transoma Medical, USA, TA11PA-C10 transmitters) after a recovery period from surgery of more than 7 days. Recordings were obtained every 2 minutes for 20 seconds at a sampling frequency of 1000 Hz and were analyzed for day (07:00-19:00) and nighttime (19:00-07:00) periods, respectively, to evaluate circadian variation in hemodynamics.

[3] = tested on: aortae of miR-143/145 KO mice; assay: Affymetrix GeneChip mRNA expression analysis of aortae after chronic captopril or losartan
Source text: as §1
Tissues were dissected from PBS perfused animals and total RNA was isolated using the Trizol method (Invitrogen). RNA quality was checked on the Agilent 2100 Bioanalyser using the RNA 6000 Nano Kit. For mRNA expression analysis the Affymetrix GeneChip Mouse Genome 430 2.0 Array was employed with the respective one-cycle target labelling protocol. Data were analysed by the RMA algorithm using the Affymetrix Expression Console. […] 507 probe sets were identified with p<0.05 and FC>1.5 or FC<0.666. For miRNA expression analysis 384 3′ C6 aminolinker DNA-oligonucleotides complementary to published miRNA (Sanger, miRBase) sequences were synthesised and spotted with eight replicates per array to Nexterion E slides. Probe labelling and hybridization followed the Agilent miRNA labelling protocol, but P-CTTTT-Alexa555 or P-CTTTTAlexa647 oligonucleotides (MWG-Biotech) were ligated to the miRNAs. Arrays were scanned and analysed with an Axon 4200B scanner and GenePix Pro 6.0. Normalisation and data analysis was performed using Acuity 4.0. For multiple tissue comparison, miRNA from tissues was labelled with the Alexa555 dye, miRNA from whole E15.5 embryos labelled with Alexa647 dye was used as a reference. Data were linear normalized to a log ratio of 1 for the ratio of medians of let-7a-g and let-7i signals. The log 2 ratio data were centered for the single miRNA expression signals (by subtracting the row mean from each value), log 2 ratio data are visualized. For Northern blot analysis 3 μg (aorta 1.5 μg) of total RNA were separated on a 15% Polyacrylamide-Urea gel (Invitrogen) and blotted on Hybond XL (Amersham). miR-145, miR-143 and U6 antisense oligonucleotides were labeled with γ-ATP and PNK (NEB) and purified using Micro Bio-Spin® 6 columns (Biorad). Hybridization was performed in Ultrahyb hybridization buffer (Ambion) at 30° C. over night. Blots were washed 2 times in 2×SSC/0.1% SDS at 25° C. (5 min) and at 42° C. (15 min). Signals were detected using a BAS-2500 imager (Fujifilm).

[4] = tested on: arteries of KO mice; assay: Morphological analysis of arteries after chronic treatment; details: 20 days treatment
Source text: A 129S7AB2.2 genomic BAC clone (bMQ-446B20; Sanger) was used to generate the targeting vector. Recombination in SW102 cell was employed to replace the miR-143 to miR-145 genomic region by a galK cassette (45) that was amplified by the primers flanking premiR-143 to pre-miR-145 ([…] GCggcgcgcctcagcactgtcctgctcctt; […] ACggcgcgcctgttgacaattaatcatcggca). The genomic sequence was inserted via gap repair into a pKO targeting vector containing a DTA expression cassette and 450 bp homology arms for BAC recombination resulting in a vector containing 6.5 kb of sequence 5′ of miR-143 and 5.5 kb 3′ of miR-145 from genomic sequence […] to […]. The AscI restriction sites flanking the galK cassette were used to replace the galK by a floxed IRESIacZ-NeoR cassette. […]
Arteries were perfused using a PBS solution via the heart apex at 100 mmHg pressure for 2 min, followed by perfusion with 4% paraformaldehyde in PBS. […] Ultra-thin sections were stained with uranyl acetate and lead citrate, viewed and photographically recorded using a Philips CM 10 electron microscope. The phenotype of VSMC was determined ultrastructurally following criteria as previously reported (47). […] The phenotype of VSMC in each mouse was quantified in at least 300 cells per 3 arterial segments (minimum 100 μm) using consecutive transversal sections. […]

[5] = KO femoral arteries, chronic captopril
[6] = mutant (KO) femoral arteries, captopril treatment vs. KO untreated
[7] = aorta, chronic oral treatment 20 days

C[C@H](CS)C(=O)N1CCC[C@H]1C(=O)O [captopril]
angiotensin II-induced contraction after ACE inhibition [1, 5]: 9 % of K+ contraction | maximal force of contraction generated by K+-induced depolarization [1, 5]: No change; also recorded: did not improve | phenylephrine-effects after ACE inhibition [1, 5]: 46 % of the K+ contraction | Maximal angiotensin II-induced force of contraction ([1]; captopril-treated WT vessels, femoral artery, 20 day oral treatment): 3.4±0.6 mN | Maximal angiotensin II-induced force of contraction ([1]; femoral arteries from miR-143/145 KO mice after captopril treatment, 20 days oral): 0.30±0.05 mN | angiotensin II induced contractile responses [1, 6]: significantly improved; also recorded: markedly improved | contractile response to phenylephrine [1, 6]: improved responses; also recorded: markedly improved | diastolic pressure after acute inhibition of ACE [2]: stronger decrease; also recorded: pronounced reduction | FC Acta1 (1427735_a_at), treated miR-143/145 KO vs. WT [3, 7]: 0.87 | FC Arhgef17 (1433682_at), treated miR-143/145 KO vs. WT [3, 7]: 0.82 | FC Cald1 (1424768_at), treated miR-143/145 KO vs. WT [3, 7]: 1.09 | FC Camk2g (1423942_a_at), treated miR-143/145 KO vs. WT [3, 7]: 0.87 | FC Cap2 (1423222_at), treated miR-143/145 KO vs. WT [3, 7]: 0.77 | FC Clcn3 (1433486_at), treated miR-143/145 KO vs. WT [3, 7]: 1.09 | FC Efemp1 (1427183_at), treated miR-143/145 KO vs. WT [3, 7]: 1.22 | FC Itga3 (1455158_at), treated miR-143/145 KO vs. WT [3, 7]: 0.76 | FC Krt8 (1420647_a_at), treated miR-143/145 KO vs. WT [3, 7]: 1.09 | FC Mc2r (1422926_at), treated miR-143/145 KO vs. WT [3, 7]: 1.23 | FC Mylk (1425506_at), treated miR-143/145 KO vs. WT [3, 7]: 0.90 | FC Mylpf (1448371_at), treated miR-143/145 KO vs. WT [3, 7]: 0.77 | FC Myoc (1450468_at), treated miR-143/145 KO vs. WT [3, 7]: 0.99 | FC Neo1 (1440789_at), treated miR-143/145 KO vs. WT [3, 7]: 1.07 | FC Npr3 (1435184_at), treated miR-143/145 KO vs. WT [3, 7]: 1.00 | FC Pde3b (1433694_at), treated miR-143/145 KO vs. WT [3, 7]: 1.04 | FC Ppp2r1b (1419871_at), treated miR-143/145 KO vs. WT [3, 7]: 0.81 | FC Prkg1 (1449876_at), treated miR-143/145 KO vs. WT [3, 7]: 1.12 | FC Rock1 (1460729_at), treated miR-143/145 KO vs. WT [3, 7]: 0.99 | FC S100a8 (1419394_s_at), treated miR-143/145 KO vs. WT [3, 7]: 0.81 | FC S100a9 (1448756_at), treated miR-143/145 KO vs. WT [3, 7]: 0.78 | FC Serca1 (1419312_at), treated miR-143/145 KO vs. WT [3, 7]: 0.72 | FC Tnnc2 (1417464_at), treated miR-143/145 KO vs. WT [3, 7]: 1.13 | FC Unc5c (1449522_at), treated miR-143/145 KO vs. WT [3, 7]: 0.63 | number of the 507 deregulated probe sets returned to normal (WT) levels ([3]; mutant mice, 3 weeks (20 days) oral application, p > 0.05 vs. WT, n = 3): 248 | significant morphological changes in arteries [4]: not observed
